Measurements reported in patent US20240116985A1, “STAPLED PEPTIDES AND METHODS THEREOF” (priority 2020, published 2024).

Target: T1, full-length beta-Catenin (Uniprot ID P35222) (Homo sapiens, UniProt P35222)
T1 construct: 10 nM full-length beta-Catenin (Uniprot ID P35222)
T1 sequence (P35222 1-781): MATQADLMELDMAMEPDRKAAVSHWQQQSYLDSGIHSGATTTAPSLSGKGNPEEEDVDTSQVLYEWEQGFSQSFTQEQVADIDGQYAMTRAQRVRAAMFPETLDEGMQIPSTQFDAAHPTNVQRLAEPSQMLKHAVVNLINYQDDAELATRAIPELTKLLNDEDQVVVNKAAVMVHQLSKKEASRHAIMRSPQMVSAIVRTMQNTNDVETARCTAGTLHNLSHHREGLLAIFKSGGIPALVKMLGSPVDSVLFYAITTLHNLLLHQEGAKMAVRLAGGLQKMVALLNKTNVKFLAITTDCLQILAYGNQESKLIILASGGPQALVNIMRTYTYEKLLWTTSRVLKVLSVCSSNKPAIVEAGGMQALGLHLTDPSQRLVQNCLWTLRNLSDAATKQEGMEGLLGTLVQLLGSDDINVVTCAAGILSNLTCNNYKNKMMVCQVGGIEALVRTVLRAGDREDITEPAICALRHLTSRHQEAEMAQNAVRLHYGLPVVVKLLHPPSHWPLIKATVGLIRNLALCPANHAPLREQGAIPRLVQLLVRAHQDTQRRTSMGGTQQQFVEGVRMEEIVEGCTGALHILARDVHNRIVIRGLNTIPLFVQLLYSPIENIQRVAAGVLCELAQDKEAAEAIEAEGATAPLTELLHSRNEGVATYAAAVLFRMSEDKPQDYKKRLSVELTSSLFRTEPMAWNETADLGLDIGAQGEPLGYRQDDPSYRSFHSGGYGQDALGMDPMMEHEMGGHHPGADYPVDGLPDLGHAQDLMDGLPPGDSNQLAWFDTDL
Experiment: Fluorescence polarization IC50 (beta-catenin / 5FAM-TCF4 10-53 competition)
Format: binding
Conditions: fluorescence polarization; read-out: beta-Catenin FP IC50

| IC50 | Compound |
| --- | --- |
| 0.324 µM | CC(=O)N1CCC[C@]12CCCCCC1(CCCCCCOC(=O)N3CC[C@@](C(=O)N[C@@H](Cc4ccsc4)C(=O)N[C@@H](Cc4csc5ccccc45)C(=O)N[C@@H](CCC(N)=O)C(N)=O)(C3)NC(=O)[C@H](CC(C)C)NC(=O)[C@H](Cc3ccccc3)NC(=O)[C@H](C)NC(=O)[C@H](C)NC(=O)[C@H](CC(=O)O)NC(=O)[C@H](CC(=O)O)NC1=O)NC(=O)[C@H](CC(C)(C)C)NC(=O)[C@H](CC(=O)O)NC2=O (stereo partly drawn) [I-1974, Ac-PL3-Asp-Npg-B4-Asp-Asp-Ala-Ala-Phe-Leu-PyrS1-3Thi-BztA-Gln-NH2] |
| 0.745 µM | CC(=O)N1CCC[C@]12CCCCCC1(CCCCCCCOC(=O)N3CC[C@@](C(=O)N[C@@H](Cc4ccsc4)C(=O)N[C@@H](Cc4csc5ccccc45)C(=O)N[C@@H](CCC(N)=O)C(N)=O)(C3)NC(=O)[C@H](CC(C)C)NC(=O)[C@H](Cc3ccccc3)NC(=O)[C@H](C)NC(=O)[C@H](C)NC(=O)[C@H](CC(=O)O)NC(=O)[C@H](CC(=O)O)NC1=O)NC(=O)[C@H](CC(C)(C)C)NC(=O)[C@H](CC(=O)O)NC2=O (stereo partly drawn) [I-1975, Ac-PL3-Asp-Npg-B4-Asp-Asp-Ala-Ala-Phe-Leu-PyrS2-3Thi-BztA-Gln-NH2] |
| 0.15 µM | CC(=O)N1CCC[C@]12CCCCCC1(CCCCCCCCOC(=O)N3CC[C@@](C(=O)N[C@@H](Cc4ccsc4)C(=O)N[C@@H](Cc4csc5ccccc45)C(=O)N[C@@H](CCC(N)=O)C(N)=O)(C3)NC(=O)[C@H](CC(C)C)NC(=O)[C@H](Cc3ccccc3)NC(=O)[C@H](C)NC(=O)[C@H](C)NC(=O)[C@H](CC(=O)O)NC(=O)[C@H](CC(=O)O)NC1=O)NC(=O)[C@H](CC(C)(C)C)NC(=O)[C@H](CC(=O)O)NC2=O (stereo partly drawn) [I-1976, Ac-PL3-Asp-Npg-B4-Asp-Asp-Ala-Ala-Phe-Leu-PyrS3-3Thi-BztA-Gln-NH2] |
| 4.28 µM | CC(=O)N1CCC[C@]12CC=CCCCC[C@@](C)(C(=O)N[C@@H](CC(=O)O)C(=O)N[C@@H](CC(=O)O)C(=O)N[C@@H](C)C(=O)N[C@@H](C)C(=O)N[C@@H](Cc1ccccc1)C(=O)N[C@@H](CC(C)C)C(=O)NC(C)(C)C(=O)N[C@@H](Cc1ccsc1)C(=O)N[C@@H](Cc1csc3ccccc13)C(=O)N[C@@H](CCC(N)=O)C(N)=O)NC(=O)[C@H](CC(C)(C)C)NC(=O)[C@H](CC(=O)O)NC2=O [I-1977, Ac-PL3-Asp-Npg-S6-Asp-Asp-Ala-Ala-Phe-Leu-Aib-3Thi-BztA-Gln-NH2] |
| 0.567 µM | CC(=O)N1CCC[C@]12CCCCCCC[C@@](C)(C(=O)N[C@@H](CC(=O)O)C(=O)N[C@@H](CC(=O)O)C(=O)N[C@@H](C)C(=O)N[C@@H](C)C(=O)N[C@@H](Cc1ccccc1)C(=O)N[C@@H](CC(C)C)C(=O)NC(C)(C)C(=O)N[C@@H](Cc1ccsc1)C(=O)N[C@@H](Cc1csc3ccccc13)C(=O)N[C@@H](CCC(N)=O)C(N)=O)NC(=O)[C@H](CC(C)(C)C)NC(=O)[C@H](CC(=O)O)NC2=O [I-1981, Ac-PL3-Asp-Npg-S6-Asp-Asp-Ala-Ala-Phe-Leu-Aib-3Thi-BztA-Gln-NH2] |
| 9.66 µM | CC(=O)N1CCC[C@]12CCCCC[C@@](C)(C(=O)N[C@@H](CC(=O)O)C(=O)N[C@@H](CC(=O)O)C(=O)N[C@@H](C)C(=O)N[C@@H](C)C(=O)N[C@@H](Cc1ccccc1)C(=O)N[C@@H](CC(C)C)C(=O)NC(C)(C)C(=O)N[C@@H](Cc1ccsc1)C(=O)N[C@@H](Cc1csc3ccccc13)C(=O)N[C@@H](CCC(N)=O)C(N)=O)NC(=O)[C@H](CC(C)(C)C)NC(=O)[C@H](CC(=O)O)NC2=O [I-1982, Ac-PL3-Asp-Npg-S4-Asp-Asp-Ala-Ala-Phe-Leu-Aib-3Thi-BztA-Gln-NH2] |
| 0.32 µM | CC(C)C[C@@H]1NC(=O)[C@H](Cc2ccccc2)NC(=O)[C@H](C)NC(=O)[C@H](C)NC(=O)[C@H](Cc2cccc(C(=O)O)c2)NC(=O)[C@H](CC(=O)O)NC(=O)C2(CCCC=CCCCOC(=O)N3CC[C@@](C(=O)N[C@@H](Cc4ccccc4Cl)C(=O)N[C@@H](Cc4csc5ccccc45)C(=O)N[C@@H](CCC(N)=O)C(N)=O)(C3)NC1=O)CCCC=CCCC(=O)N1CCCC1C(=O)N[C@@H](CC(=O)O)C(=O)N[C@@H](CC(C)(C)C)C(=O)N2 (stereo partly drawn) [I-1984, ProAm5-Asp-Npg-B5-Asp-3COOHF-Ala-Ala-Phe-Leu-PyrS2-2C1F-BztA-Gln-NH2] |
| 0.325 µM | CC(C)C[C@@H]1NC(=O)[C@H](Cc2ccccc2)NC(=O)[C@H](C)NC(=O)[C@H](C)NC(=O)[C@H](Cc2cccc(C(=O)O)c2)NC(=O)[C@H](CC(=O)O)NC(=O)C2(CCCC=CCCCOC(=O)N3CC[C@@](C(=O)N[C@@H](Cc4ccccc4Cl)C(=O)N[C@@H](Cc4csc5ccccc45)C(=O)N[C@@H](CCC(N)=O)C(N)=O)(C3)NC1=O)CCCC=CCCCC(=O)N1CCC[C@@H]1C(=O)N[C@@H](CC(=O)O)C(=O)N[C@@H](CC(C)(C)C)C(=O)N2 (stereo partly drawn) [I-1985, ProAm6-Asp-Npg-B5-Asp-3COOHF-Ala-Ala-Phe-Leu-PyrS2-2C1F-BztA-Gln-NH2] |
| 0.054 µM | CC(=O)N1CCC[C@]12CCCCCCC1(CCCCCCCCOC(=O)N3CC[C@@](C(=O)N[C@@H](Cc4ccsc4)C(=O)N[C@@H](Cc4csc5ccccc45)C(=O)N[C@@H](CCC(N)=O)C(N)=O)(C3)NC(=O)[C@H](CC(N)=O)NC(=O)[C@H](Cc3ccccc3)NC(=O)[C@H](C)NC(=O)[C@H](C)NC(=O)[C@H](CC(=O)O)NC(=O)[C@H](CC(=O)O)NC1=O)NC(=O)[C@H](CC(C)(C)C)NC(=O)[C@H](CC(=O)O)NC2=O (stereo partly drawn) [I-1987, Ac-PL3-Asp-Npg-B5-Asp-Asp-Ala-Ala-Phe-Asn-PyrS2-3Thi-BztA-Gln-NH2] |
| 0.312 µM | CC(=O)N1CCC[C@H]1C(=O)N[C@@H](CC(=O)O)C(=O)N[C@@H](CC(C)(C)C)C(=O)N[C@]1(C)CCCCC=CCCCOC(=O)N2CC[C@@](C(=O)N[C@@H](Cc3ccsc3)C(=O)N[C@@H](Cc3csc4ccccc34)C(=O)N[C@@H](CCC(N)=O)C(N)=O)(C2)NC(=O)[C@H](CC(C)C)NC(=O)[C@H](Cc2ccccc2)NC(=O)[C@H](C)NC(=O)[C@H](C)NC(=O)[C@H](CC(=O)O)NC(=O)[C@H](CC(=O)O)NC1=O [I-1988, Ac-Pro-Asp-Npg-R6-Asp-Asp-Ala-Ala-Phe-Leu-PyrS2-3Thi-BztA-Gln-NH2] |
| 0.186 µM | CC(=O)N1CCC[C@H]1C(=O)N[C@@H](CC(=O)O)C(=O)N[C@@H](CC(C)(C)C)C(=O)N[C@]1(C)CCC=CCCCOC(=O)N2CC[C@@](C(=O)N[C@@H](Cc3ccsc3)C(=O)N[C@@H](Cc3csc4ccccc34)C(=O)N[C@@H](CCC(N)=O)C(N)=O)(C2)NC(=O)[C@H](CC(C)C)NC(=O)[C@H](Cc2ccccc2)NC(=O)[C@H](C)NC(=O)[C@H](C)NC(=O)[C@H](CC(=O)O)NC(=O)[C@H](CC(=O)O)NC1=O [I-1989, Ac-Pro-Asp-Npg-R4-Asp-Asp-Ala-Ala-Phe-Leu-PyrS2-3Thi-BztA-Gln-NH2] |
| 0.585 µM | CC(=O)N1CCC[C@H]1C(=O)N[C@@H](CC(=O)O)C(=O)N[C@@H](CC(C)(C)C)C(=O)N[C@]1(C)CC=CCCCOC(=O)N2CC[C@@](C(=O)N[C@@H](Cc3ccsc3)C(=O)N[C@@H](Cc3csc4ccccc34)C(=O)N[C@@H](CCC(N)=O)C(N)=O)(C2)NC(=O)[C@H](CC(C)C)NC(=O)[C@H](Cc2ccccc2)NC(=O)[C@H](C)NC(=O)[C@H](C)NC(=O)[C@H](CC(=O)O)NC(=O)[C@H](CC(=O)O)NC1=O [I-1990, Ac-Pro-Asp-Npg-R3-Asp-Asp-Ala-Ala-Phe-Leu-PyrS2-3Thi-BztA-Gln-NH2] |
